Entries after “also recorded” stand apart in the source; their conditions may differ. Where two headings read alike, the source gives them in different places. Ends that are not written are not given here.
Experiments:
[1] = target: TgAMA1ΔDIIloop (TgAMA1 with the mobile portion of the DII loop replaced with a short Gly-Ser linker) (Toxoplasma gondii) (UniProt B6KAM0); assay: ITC; TgAMA1 or TgAMA1ΔDIIloop in the sample cell (10 to 16 μM for nanomolar affinity, 35 to 75 μM for micromolar affinity), TRX-fused peptides (110 to 180 μM or 360 to 1180 μM) added in 17 injections of 2 μL; 25 °C; HBS (20 mM HEPES pH 7.5, 150 mM NaCl); one-site model
[2] = target: Toxoplasma gondii apical membrane antigen 1 (TgAMA1) (Toxoplasma gondii); assay: as above
TgAMA1 = assay: Isothermal titration calorimetry of TRX-fused RON2D3 peptides titrated into TgAMA1; assay type: binding, Toxoplasma gondii; details: ITC, 25 °C; for -TΔS / ΔG / Kd / Molar Ratio (RON2/AMA1) / ΔH: TgAMA1, TRX-fused peptides; for Molar Ratio (RON2/AMA1) / ΔH: representative of at least two
Description: (§1) For ITC experiments, TgAMA1 was produced and purified as previously reported. Thioredoxin fusions of TgRON2D3, TgRON2L1D3, TgRON2L2D3, EtRON2D3 and PfRON2D3 were produced in E. coli BL21 cells and purified by nickel-affinity and SEC.
(§2) Purified TgAMA1, TgAMA1ΔDIIloop, and TRX fusions of TgRON2D3, TgRON2L1D3 TgRON2L2D3, EtRON2D3, and PfRON2D3 were dialyzed against HBS at 4 °C. All ITC experiments were carried out at 25 °C on a MicroCal iTC200 instrument (GE Healthcare). […] Data were processed using Origin software (MicroCal) and the dissociation constants (Kd) were determined using a one-site model. Values are derived from a single experiment, but are representative of at least two independent experiments.

TgAMA1ΔDIIloop [3] = assay: Isothermal titration calorimetry of TRX-fused RON2D3 peptides titrated into TgAMA1ΔDIIloop (DII loop replaced by Gly-Ser linker); assay type: binding, Toxoplasma gondii; details: for binding to TgAMA1ΔDIIloop (in words) / Kd / -TΔS / ΔG / Molar Ratio (RON2/AMA1) / ΔH: ITC, 25 °C; for binding to TgAMA1ΔDIIloop (in words) / -TΔS / ΔG / Molar Ratio (RON2/AMA1) / ΔH: HBS pH 7.5; for Kd / -TΔS / ΔG / Molar Ratio (RON2/AMA1) / ΔH: TgAMA1ΔDIIloop, TRX-fused peptides; for Kd: HBS (20 mM HEPES pH 7.5, 150 mM NaCl), one-site model, representative of at least two independent experiments; for Kd / Molar Ratio (RON2/AMA1) / ΔH: single experiment; for Molar Ratio (RON2/AMA1) / ΔH: representative of at least two
Source text: A sequence encoding the mature ectoplasmic region of TgAMA1 (amino acids 64 to 484, TGME49_255260 [24]) with the twenty residues of the DII loop disordered in the TgAMA1-TgRON2D3 co-structure replaced by a seven residue Gly-Ser linker (TgAMA1ΔDIIloop) was synthesized and subcloned into a modified pAcGP67b vector (Pharmingen) with a C-terminal thrombin cleavage site and hexahistidine tag. TgAMA1ΔDIIloop encoding virus for insect cell protein production was generated and amplified using established protocols. Following a 65 hr infection the supernatant was harvested, concentrated, and TgAMA1ΔDIIloop was purified by nickel batch binding as previously described. The hexahistidine tag was removed by thrombin cleavage and the protein was further purified by size exclusion chromatography (SEC) (Superdex 16/60 75) in HEPES buffered saline (HBS: 20 mM HEPES pH 7.5, 150 mM NaCl).
as §1, §2

TgAMA1ΔDIIloop [4] = assay: Native gel electrophoresis of TgAMA1ΔDIIloop co-purified with EtRON2D3; assay type: binding, Toxoplasma gondii; details: 8–25% gradient native gel, HBS, Coomassie Brilliant Blue; sample co-purified with EtRON2D3
Source text: A sequence encoding a portion of EtRON2D3 (amino acids 1262 to 1297, ETH_00012760) was synthesized and subcloned into a modified pET32a vector (Novagen) incorporating N-terminal hexahistidine and thioredoxin (TRX) tags with a thrombin cleavage site. The fusion protein was produced in E. coli BL21 cells. For crystallization, EtRON2D3-TRX was cleaved to remove the fusion tags and co-purified with TgAMA1ΔDIIloop by SEC in HBS followed by anion exchange chromatography using a Source 30Q column (20 mM HEPES pH 8.0, 10 mM NaCl; elution gradient with 20 mM HEPES pH 8.0, 1 M NaCl) to remove residual TRX tag.
Purified TgAMA1ΔDIIloop and co-purified TgAMA1ΔDIIloop-EtRON2D3 protein samples in HBS were run on an 8–25% gradient native gel using the PhastGel system (GE Healthcare), and protein bands were visualized with Coomassie Brilliant Blue staining.

TgAMA1 or TgAMA1ΔDIIloop = assay: Isothermal titration calorimetry, TRX negative control; assay type: binding, Toxoplasma gondii; details: ITC, 25 °C, HBS pH 7.5
Description: as §2

EtRON2D3-TRX (Eimeria tenella RON2 domain 3 peptide, thioredoxin fusion) (from UniProt U6KQJ2 1262-1297)
Kd [1]: < 8 nM
Kd [2]: 2200 nM

EtRON2D3: a portion of EtRON2D3 (amino acids 1262 to 1297, ETH_00012760), Eimeria tenella RON2 peptide (thioredoxin-DITQHLNDSGLGPAVECLENLVVGPVCPAAVVAPAV; not fully specified (bridges); also: disulfide partially formed)
binding to TgAMA1 (in words) (TgAMA1; HBS pH 7.5): bound both TgRON2D3 and EtRON2D3 but only the former with high affinity
binding to TgAMA1 (in words) (TgAMA1; HBS pH 7.5, listed as EtRON2): showed only weak binding to TgAMA1
-TΔS (TgAMA1; HBS pH 7.5): -3.0 kcal/mol
ΔG (TgAMA1; HBS pH 7.5): -7.7 kcal/mol
Kd (TgAMA1; HBS pH 7.5, rounded value, read-out: affinity (Kd)): 2200 nM
Molar Ratio (RON2/AMA1) (TgAMA1; HBS pH 7.5, single experiment): 1.17 ± 0.02
ΔH (TgAMA1; HBS pH 7.5, single experiment): -4.7 ± 0.1 kcal/mol
binding to TgAMA1ΔDIIloop (in words) (TgAMA1ΔDIIloop [3]): bound both TgRON2D3 and EtRON2D3 with high affinity; also recorded: significantly tighter binding to TgAMA1ΔDIIloop relative to TgAMA1
binding to TgAMA1ΔDIIloop (in words) (TgAMA1ΔDIIloop [3]; listed as EtRON2): bound with high affinity to TgAMA1ΔDIIloop
Kd (TgAMA1ΔDIIloop [3]): 8 ± 3.1 nM
-TΔS (TgAMA1ΔDIIloop [3]): -0.1 kcal/mol
ΔG (TgAMA1ΔDIIloop [3]): -11.1 kcal/mol
Molar Ratio (RON2/AMA1) (TgAMA1ΔDIIloop [3]): 0.96 ± 0.01
ΔH (TgAMA1ΔDIIloop [3]): -11.0 ± 0.1 kcal/mol
fold tighter binding to TgAMA1ΔDIIloop relative to TgAMA1 (TgAMA1ΔDIIloop [3]; ratio of ITC Kd, TgAMA1 (2.2 μM) vs TgAMA1ΔDIIloop (8.0 nM)): approximately 275 fold
native PAGE migration / retention on TgAMA1ΔDIIloop (TgAMA1ΔDIIloop [4]): altered migration for the sample co-purified with EtRON2D3

PfRON2D3 thioredoxin fusion (Plasmodium falciparum RON2 domain 3 peptide)
Kd [1]: 1400 nM
stoichiometry N [1]: 1

TRX: thioredoxin, injected as a negative control
binding of TRX negative control (TgAMA1 or TgAMA1ΔDIIloop): no detectable binding

TgRON2D3 thioredoxin fusion (Toxoplasma gondii RON2 domain 3 peptide) (from UniProt B6KV60 1297-1332)
Kd [2]: < 5.8 nM

TgRON2D3: RON2 domain 3 peptide of T. gondii, thioredoxin fusion produced in E. coli BL21 (DIVQHMEDIGGAPPVSCVTNEILGVTCAPQAIAKAT; cysteine pairing not given here; also: thioredoxin fusion, end not given here, His tag, end not given here)
binding to TgAMA1 (in words) (TgAMA1; HBS pH 7.5): bound both TgRON2D3 and EtRON2D3 but only the former with high affinity
Kd (TgAMA1; HBS (20 mM HEPES pH 7.5, 150 mM NaCl), one-site model, single experiment, representative of at least two independent experiments, read-out: Kd): 5.8 ± 2.8 nM
-TΔS (TgAMA1; HBS pH 7.5): 5.9 kcal/mol
ΔG (TgAMA1; HBS pH 7.5): -11.2 kcal/mol
Molar Ratio (RON2/AMA1) (TgAMA1; HBS pH 7.5, single experiment): 1.00 ± 0.01
ΔH (TgAMA1; HBS pH 7.5, single experiment): -17.1 ± 0.2 kcal/mol
binding to TgAMA1ΔDIIloop (in words) (TgAMA1ΔDIIloop [3]): bound both TgRON2D3 and EtRON2D3 with high affinity
Kd (TgAMA1ΔDIIloop [3]): 3.6 ± 3 nM
-TΔS (TgAMA1ΔDIIloop [3]): 10.6 kcal/mol
ΔG (TgAMA1ΔDIIloop [3]): -11.6 kcal/mol
Molar Ratio (RON2/AMA1) (TgAMA1ΔDIIloop [3]): 1.01 ± 0.01
ΔH (TgAMA1ΔDIIloop [3]): -22.2 ± 0.2 kcal/mol

TgRON2L1D3 thioredoxin fusion (Toxoplasma gondii RON2L1 domain 3 peptide)
Kd [1]: 46000 nM
stoichiometry N [1]: 1

TgRON2L2D3 thioredoxin fusion (Toxoplasma gondii RON2L2 domain 3 peptide)
Kd [1]: 6000 nM
stoichiometry N [1]: 1

Source: article PMC4425356, “An Extended Surface Loop on Toxoplasma gondii Apical Membrane Antigen 1 (AMA1) Governs Ligand Binding Selectivity” (PLoS ONE, 2015)
